Here are results for 1 compound from patent US20070141067A1, “TARGETED CANCER THERAPY” (MAYO MEDICAL VENTURES, priority 2004, published 2007).

This assay has as its system HeLa cells. The experiment in a line: siRNA pretreatment with or without low dose doxorubicin, HeLa cell survival (drug sensitization). In kind it is cell-based. Particulars: 50 fold lower than the LD90, dose response experiment. As for the experimental part: FIG. 6A is a graph illustrating percent cell survival following treatment with a gene-specific siRNA, with or without a low dose drug. Seventy-six test siRNAs (2 or 3 siRNAs per gene plus 6 control siRNAs), targeting 29 novel candidate genes, were transfected into HeLa cells.
FIG. 6B is an enlarged section of the graph in FIG. 6A.
FIG. 6C is a graph of the same data of FIG. 6A plotted as a percentage increase in sensitivity relative to the untreated sample.
An analysis was conducted by a similar method as described in FIG. 4, with two main differences. First, a different set of siRNAs were used. The siRNAs targeted 29 novel candidate genes that were previously identified by cDNA microarray and CGH analysis to be overexpressed and amplified in 14 breast cancer cell lines (Hyman et al., Cancer Res. 62:6240-5, 2002). There were 76 test siRNAs (2 or 3 siRNA per gene plus 6 control siRNAs). The second difference in this study was that the number of experiments was doubled to include a low dose doxorubicin (“Dox”) treatment. Four replicates of the no-drug control, and four replicates of the low dose drug were prepared for a total of 8 wells treated with each siRNA. The HeLa cells were transfected with siRNA as described above, and the cells were allowed to incubate for 24 hours to achieve silencing of the targeted genes. […]

For `COc1cccc2c1C(=O)c1c(O)c3c(c(O)c1C2=O)C[C@@](O)(C(=O)CO)C[C@@H]3O[C@H]1C[C@H](N)[C@H](O)[C@H](C)O1` [Dox, doxorubicin], the “effect of low dose Dox on HeLa cell survival” value was “no effect”.
